The values below come from US12458605B2, “Lipid nanoparticle” (National University Corporation Hokkaido University, priority 2020, dated 2025).

Series [1] is described as follows: siRNA/mRNA encapsulation rate by Ribogreen reagent (section IV). The following applies: for % siRNA encapsulation: F7siRNA-loaded LNP, 50:10:38.5:1.5, N/P ratio 6; for % mRNA encapsulation: FlucmRNA-loaded LNP, 50:10:38.5:1.5. The series is classed as physicochemical. The essentials: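 Encapsulation % was calculated as (total − surface nucleic acid)/total × 100, with both values measured by RiboGreen fluorescence at 485/528 nm. Total RNA was read on LNPs lysed with 1% Triton X-100 at 1.2 μg/mL, and surface RNA on intact LNPs at 8 μg/mL in TE buffer. Concentrations came from a 0-2.5 μg/mL Triton-containing calibration curve.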

Series [2] deals with F7. As to the kind of experiment: In vivo F7 knockdown, plasma F7 enzyme activity, ICR mice. The following applies: i.v. 0.003-0.1 mg siRNA/kg, plasma at 24 hours, compared with LNP of CL4H6 or CL15H6 (FIG. 2). How it is done: Then, each prepared F7siRNA-loaded lipid nanoparticles were administered to ICR mice (4 weeks old, female) and in vivo F7 knockdown activity was examined.
Specifically, each F7siRNA-loaded lipid nanoparticles were intravenously administered to ICR mice at 0.003-0.1 mg siRNA/kg, and plasma F7 enzyme activity at 24 hours later was measured. Relative plasma F7 enzyme activity (%) of mice administered each F7siRNA-loaded lipid nanoparticles was calculated using plasma F7 enzyme activity of untreated mice as 100%. FIG. 2(B) is the results of intravenous administration of each F7siRNA-loaded lipid nanoparticle at 0.1 mg siRNA/kg.

Series [3] can be described thus: Storage stability of FlucmRNA-loaded LNP at −80, 5, 25 and 40° C. The following applies: for period for which quality remained good, −80° C.: maximum storage period 1 week; for period for which quality remained good, 5° C. / period for which quality remained good, 25° C. / period for which quality remained good, 40° C. (weeks): maximum storage period 5 weeks. The series is classed as physicochemical. Put shortly:
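Reported period is how long all three criteria hold: encapsulation rate at 80% or more, PDI of 0.2 or less, and mean particle size within +/−20 nm of day-of-preparation value. Particle size, PDI and nucleic acid encapsulation were tracked over time at storage temperatures of −80, 5, 25 and 40° C.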

Series [4] can be described thus: Zeta potential in 10 mM HEPES buffer (pH 7.4). The series is classed as physicochemical. The protocol: (§1) The average particle size (number-average value) and PDI in PBS(−) and zeta potential in 10 mM HEPES buffer solution (pH 7.4) of lipid nanoparticles were measured using “Zetasizer Nano ZS ZEN3600”, an analyzer utilizing dynamic light scattering (manufactured by Malvern).

Series [5] can be described thus: Nucleic acid encapsulation rate by Ribogreen (section II). The series is classed as physicochemical. The following applies: for % mRNA encapsulation: NlucmRNA-loaded LNP, 60:10:40:1; for % pDNA encapsulation: pFluc-loaded LNP. How it is done: The encapsulation rates of siRNA, mRNA, and pDNA of lipid nanoparticles were measured using Ribogreen (manufactured by life technologies).

Series [6] in a line: Average particle size and PDI by dynamic light scattering (Zetasizer Nano ZS). The series is classed as physicochemical. How it is done: as §1
The subject of another series is liver. As to the kind of experiment: In vivo Fluc activity of FlucmRNA-loaded LNP by in vivo imaging, liver. The conditions noted are these: Balb/c mice, FlucmRNA-loaded LNP i.v. 0.1 mg mRNA/kg, 6 hours. The essentials:
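Read-out is average radiance (p/s/cm2/sr, about 560 nm) from whole-animal imaging of liver and spleen 6 h post-dose, after tail-vein luciferin at 1.5 mg/mouse. Dosing was intravenous, 0.1 mg mRNA/kg, in 7-week-old female Balb/c mice.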

For series [7], the system named is F7. As to the kind of experiment: In vivo F7 knockdown, plasma F7 enzyme activity (BIOPHEN FVII), Balb/c mice. The following applies: i.v. 0.025 mg siRNA/kg, plasma at 24 hours. The essentials:
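Plasma factor VII activity was read 24 h after a single intravenous 0.025 mg siRNA/kg dose of siRNA-loaded lipid nanoparticles in 5-week-old female Balb/c mice. Activity is relative to untreated animals (100%) and normalised to the MC3 nanoparticle benchmark (=1).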

Where [8] appears, read: NlucmRNA-loaded LNP, 60:10:40:1.
[9] abbreviates: NlucmRNA-loaded LNP, lipid:DSPC:cholesterol:PEG-DMG 60:10:40:1.
[10] abbreviates: pFluc-loaded LNP, 50:10:40:1.5, N/P ratio 6.
Where [11] appears, read: pFluc-loaded LNP, 50:10:40:1.5, N/P ratio 9.

As to `CCCN(CCC)CCCCC(O)(CCCCCCOC(=O)C(CCC(C)CC(C)(C)C)C(C)CC(C)(C)C)CCCCCCOC(=O)C(CCC(C)CC(C)(C)C)C(C)CC(C)(C)C` (stereo not drawn) [CL4G6, 7-(4-(dipropylamino)butyl)-7-hydroxytridecan-1,13-diyl bis(2-(4.4-dimethylpentan-2-yl)-5,7,7-trimethyloctanoate)], in series [1], the “% siRNA encapsulation” value was 100.1%. Further, the “% mRNA encapsulation” value is 99.8% in series [1] and 91.7% in series [5]. Besides, the “in vivo F7 knockdown activity, compared” value in the series on F7 [2] is “equivalent in vivo F7 knockdown activity”. Besides, the “period for which quality remained good, −80° C.” value in series [3] is reported as 1 week. Moreover, in series [3], the “period for which quality remained good, 5° C.” value is 5 weeks. Also, the “period for which quality remained good, 25° C.” value in series [3] stood at 5 weeks. Besides, the “period for which quality remained good, 40° C. (weeks)” value in series [3] was determined as 5 weeks. In addition, the “ζ-potential (mV)” value in series [4] (setting [8]) is on record as −1.76 mV; in series [4] (pFluc-loaded LNP, N/P ratio 6), −2.46 mV; in series [4] (pFluc-loaded LNP, N/P ratio 9) it was −1.3 ± 0.7 mV. Further, the entries for the “% pDNA encapsulation” value in series [5] (N/P ratio 6) and in series [5] (N/P ratio 9) were 97.6% and 94.5 ± 3.6%, respectively. The PdI in series [6] (setting [8]) is listed as 0.13; in series [6] (pFluc-loaded LNP, N/P ratio 6) it was 0.11; in series [6] (pFluc-loaded LNP, N/P ratio 9) it was 0.19 ± 0.05. Also, the “ζ-Average (nm)” value in series [6] (setting [9]) is given as 109.6 nm; in series [6] (setting [10]), 74.48 nm; in series [6] (setting [11]), 90.6 ± 7 nm. Besides, the “Fluc Activity in liver” value with liver was found to be 4.58E+07 Avg Radiance [p/s/cm2/sr]. The “F7 enzyme activity (%)” value with F7 [7] (untreated mice as 100%) was found to be 7.6%.
For `CCCCCCCCC(CCCCCC)C(=O)OCCCCCCC(O)(CCCCCCOC(=O)C(CCCCCC)CCCCCCCC)CCCCOC(=O)C1CCN(C)CC1` (stereo not drawn) [CL15F6], the “% siRNA encapsulation” value in series [1] turned out to be 100.5%. In addition, the “% mRNA encapsulation” value came out at 99.69% in series [1] and 90.3% in series [5]. Besides, the “in vivo F7 knockdown activity, compared” value in the series on F7 [2] is recorded as “equivalent in vivo F7 knockdown activity”. For the same compound, in series [3], the “period for which quality remained good, −80° C.” value came out at 1 week. In addition, the “period for which quality remained good, 5° C.” value in series [3] was found to be 5 weeks. Moreover, the “period for which quality remained good, 25° C.” value in series [3] was 5 weeks. Besides, the “period for which quality remained good, 40° C. (weeks)” value in series [3] was determined as 5 weeks. The “ζ-potential (mV)” value in series [4] (setting [8]) was −2.16 mV; in series [4] (pFluc-loaded LNP, N/P ratio 6), −2.02 mV; in series [4] (pFluc-loaded LNP, N/P ratio 9), −1.2 ± 0.4 mV. In addition, the “% pDNA encapsulation” value in series [5] (N/P ratio 6) was 95.4%; in series [5] (N/P ratio 9) it was 93.1 ± 3.3%. In addition, the PdI is recorded as 0.162 in series [6] (setting [8]); 0.07 in series [6] (pFluc-loaded LNP, N/P ratio 6); 0.13 ± 0.02 in series [6] (pFluc-loaded LNP, N/P ratio 9). In addition, the “ζ-Average (nm)” value in series [6] (setting [9]) was 92.52 nm; in series [6] (setting [10]) it was 109.4 nm; in series [6] (setting [11]), 105.7 ± 8.6 nm. Moreover, the “Fluc Activity in liver” value in the series with liver worked out at 6.28E+06 Avg Radiance [p/s/cm2/sr]. For the same compound, the “F7 enzyme activity (Ratio using MC3 as 1)” value in the series with F7 [7] (relative plasma F7 activity of MC3 LNP as 1) was found to be 1.52.
